Measured values: patent US8685981B2, “Cyclic compound having hetero atom” (Daiichi Sankyo Company, Limited, priority 2009, dated 2014)

Tested on: ST2 cells, murine bone marrow-derived stromal cells
Assay: Osteoblast differentiation test (alkaline phosphatase activity)
Format: cell-based
Conditions: Mus musculus, ST-2, 96 h, at 0.03 μg/mL, four days of culturing, control group (0.1% DMSO) set at 100%, read-out: increase (%) in alkaline phosphatase activity
Experimental: ST2 cells, murine bone marrow-derived stromal cells, (obtained from RIKEN) were used.
In this test, α-MEM media (obtained from GIBCO BRL Cat. No. 10370-021) containing 10% (v/v) of inactivated calf serum (obtained from Hyclone Laboratories, Inc.) and 1% (v/v) of Penicillin-Streptomycin Liquid (obtained from GIBCO BRL Cat. No. 15140-122) (hereinbelow, abbreviated as 10%-FBS-αMEM) were used. In this test, all culturing was performed in a CO2 incubator (37° C., 95% humidity, 5% CO2).
The aforementioned cells were detached with 2 mL of a 0.25% trypsin solution (obtained from GIBCO BRL Cat. No. 15050-065) and dispersed in 10 mL of 10%-FBS-αMEM. Subsequently, the cells were collected by centrifugation (25° C., 800 rpm, five minutes). Then, a cell suspension containing 40000 of the cells/mL of 10%-FBS-αMEM was prepared. The cell suspension was then dispensed into 96-well plates (the product of Falcon), 100 μL per well, at a density of 4000 cells/well, followed by culturing for 24 hours. To the wells except for the below-described well containing a control group, the compound was dispensed at final concentrations of 0.01, 0.03, 0.1, and 0.3 μg/ml. To the well of a control group, DMSO was dispensed at a final concentration of 0.1% (v/v). After four days of culturing, the activity of alkaline phosphatase (ALP) was measured in each group.
The measurement of ALP activity was performed as follows. That is, the medium in each well of the culture plates was completely removed. Each well was then washed by dispensing 100 μL of Dulbecco's phosphate buffer (obtained from GIBCO BRL Cat. No. 14190-144) and then removing it. A cell lysate solution containing 10 mM MgCl2 and 2% (v/v) TritonX-100 (Sigma) was prepared and dispensed at 50 μL/well, followed by stirring at room temperature for five minutes. An ALP substrate solution containing 50 mM diethanolamine (Wako pure chemical industries, Ltd., Cat. No. 099-03112) and 20 mM p-nitrophenyl phosphate (Wako pure chemical industries, Ltd., Cat. No. 147-02343) was prepared and dispensed at 50 μL/well, and the plates were left to stand at room temperature for 10 minutes. Subsequently, absorbance was measured by a microplate reader (Bio-Rad Laboratories, Inc.). Setting the measurement value of the control group of each plate at 100%, the increase (%) in alkaline phosphatase activity in the test compound-addition group was calculated, which was assessed as the degree of osteoblast differentiation.

Compound	activity at 0.03 µg/mL [%]
COCCOC1CCN(c2cncc3ccc(C(N)=O)nc23)CC1 [Example 1, 8-[4-(2-Methoxyethoxy)piperidin-1-yl]-1,6-naphthyridine-2-carboxamide]	≥ 200
CCOCCOC1CCN(c2cncc3ccc(C(N)=O)nc23)CC1 [Example 2, 8-[4-(2-Ethoxyethoxy)piperidin-1-yl]-1,6-naphthyridine-2-carboxamide]	≥ 200
NC(=O)c1ccc2cncc(N3CCC(OCCOCC4CCOC4)CC3)c2n1 (stereo not drawn) [Example 5, 8-{4-[2-(Tetrahydrofuran-3-ylmethoxy)ethoxy]piperidin-1-yl}-1,6-naphthyridine-2-carboxamide]	≥ 200
NC(=O)c1ccc2cncc(N3CCC(OCCOC4CCOCC4)CC3)c2n1 [Example 6, 8-{4-[2-(Tetrahydro-2H-pyran-4-yloxy)ethoxy]piperidin-1-yl}-1,6-naphthyridine-2-carboxamide]	≥ 200
CN(C)C(=O)COC1CCN(c2cncc3ccc(C(N)=O)nc23)CC1 [Example 8, 8-{4-[2-(Dimethylamino)-2-oxoethoxy]piperidin-1-yl}-1,6-naphthyridine-2-carboxamide]	≥ 200
CN(CCOC1CCN(c2cncc3ccc(C(N)=O)nc23)CC1)S(C)(=O)=O [Example 9, 8-(4-{2-[Methyl(methylsulfonyl)amino]ethoxy}piperidin-1-yl)-1,6-naphthyridine-2-carboxamide]	≥ 200
CN(C)C(=O)N1CCN(c2cncc3ccc(C(N)=O)nc23)CC1 [Example 10, 8-[4-(Dimethylcarbamoyl)piperazin-1-yl]-1,6-naphthyridine-2-carboxamide]	≥ 200
COCC1CCCN(c2cncc3ccc(C(N)=O)nc23)C1 (stereo not drawn) [Example 11, 8-[3-(Methoxymethyl)piperidin-1-yl]-1,6-naphthyridine-2-carboxamide]	≥ 200
NC(=O)c1ccc2cncc(N3CCCCC3)c2c1 [Example 16, 4-(Piperidin-1-yl)isoquinoline-6-carboxamide]	≥ 200
COCC1CCCN(c2cncc3ccc(C(N)=O)cc23)C1 (stereo not drawn) [Example 17, 4-[3-(Methoxymethyl)piperidin-1-yl]isoquinoline-6-carboxamide]	≥ 200
NC(=O)c1ccc2cncc(N3CCN(c4nccs4)CC3)c2c1 [Example 18, 4-[4-(1,3-Thiazol-2-yl)piperazin-1-yl]isoquinoline-6-carboxamide]	≥ 200
NC(=O)c1ccc2cncc(N3CCC(OCCOC4CCCCO4)CC3)c2c1 (stereo not drawn) [Example 19, 4-{4-[2-(Tetrahydro-2H-pyran-2-yloxy)ethoxy]piperidin-1-yl}isoquinoline-6-carboxamide]	≥ 200
NC(=O)c1ccc2cncc(N3CCC(OCCO)CC3)c2c1 [Example 20, 4-[4-(2-Hydroxyethoxy)piperidin-1-yl]isoquinoline-6-carboxamide]	≥ 200
CC(C)(C)OC(=O)NCCOCC1CCCN(c2cncc3ccc(C(N)=O)cc23)C1 (stereo not drawn) [Example 21, Tert-butyl (2-{[1-(6-carbamoylisoquinolin-4-yl)piperidin-3-yl]methoxy}ethyl)carbamate]	≥ 200
NC(=O)c1ccc2cncc(N3CCC(O)(c4ccccc4)CC3)c2c1 [Example 23, 4-(4-Hydroxy-4-phenylpiperidin-1-yl)isoquinoline-6-carboxamide]	≥ 200
NC(=O)c1ccc2cncc(N3CC=C(c4ccccc4)CC3)c2c1 [Example 24, 4-(4-Phenyl-3,6-dihydropyridine-1(2H)-yl)isoquinoline-6-carboxamide]	≥ 200
NC(=O)c1ccc2cncc(N3CCN(c4ccccc4)CC3)c2n1 [Example 28]	≥ 200
NC(=O)c1ccc2cncc(N3CCN(c4cccc(F)c4)CC3)c2n1 [Example 32]	≥ 200
NC(=O)c1ccc2cncc(-n3cccc3)c2c1 [Example 34]	≥ 200
NC(=O)c1ccc2cncc(N3CCOCC3)c2c1 [Example 35]	≥ 200
NC(=O)c1ccc2cncc(N3CCCC3)c2c1 [Example 36]	≥ 200
